Measurements as given in patent US20120009280A1, “METHOD OF REDUCING THE RATE OF DEGRADATION OF A BIOLOGICAL MATERIAL” (Bio-Energy Ingredients Limited, priority 2009, published 2012).

Columns and labels:
total micro-organism = test: Total microbial (plate) count of spent brewer's / wet distiller's grains stored at ambient temperature; assay type: cell-based
How it was run: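 Spent brewer's grains taken from a brewery discharge line were mixed at the laboratory and treated with powdered commercial calcium oxide containing approximately 94% CaO. Each batch was kept under insect-proof screens at ambient temperature, with no further treatment or agitation. Samples were drawn every seven days, and the entire sample was sent to a microbiological testing facility for total microbial counts.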

[1] = pH of suspensions of grain samples in distilled water or PBS; conditions: for pH: 1% (w/w) in distilled water
Procedure: The untreated sample (A) was compared visually against the corresponding quicklime-treated sample (B).
On Day 7, 10 g amounts of each sample were suspended in either 90 ml PBS or 90 ml sterile distilled water and shaken for 10 minutes. The pH of each suspension was then measured and compared.
On Day 9, 10 g of each sample was suspended in 90 ml PBS and shaken for 10 minutes. The pH was measured.

[2] = calcium oxide 0.5% (w/w), Example 14
[3] = dose 5% w/w, distiller's grains not de-watered, Examples 16-18

SMILES: [O]=[Ca] [calcium oxide]
- shelf life of fermentation residue (total micro-organism; 2.5% (w/w) calcium oxide powder added to the fermentation residue): at least 10 days
- Total plate count (total micro-organism; 5% CaO (w/w) powder, week 1): 2770 cfu/gram
- Total plate count (total micro-organism; 5% CaO (w/w) powder, week 2): 200 cfu/gram
- Total plate count (total micro-organism; 5% CaO (w/w) powder, week 3): 4800 cfu/gram
- Total plate count (total micro-organism; 5% CaO (w/w) powder, week 4): 10 cfu/gram
- Total plate count (total micro-organism; 5% CaO (w/w) powder, week 5): 10 cfu/gram
- shelf life of fermentation residue (total micro-organism; 10% (w/w) calcium oxide added to the fermentation residue): at least 63 days
- effect on micro-organism levels (total micro-organism; [2]): only a very limited effect
- suppressed microbial levels up to day (total micro-organism; calcium oxide 1.0% (w/w), Example 14): 8 days
- preservation effect period (total micro-organism; calcium oxide 2.5% (w/w), Example 9): only the first week
- preservation effect period (total micro-organism; calcium oxide 5.0% (w/w), Example 9): 49 days
- preservation effect period (total micro-organism; calcium oxide 10% (w/w), Example 9): 56 days
- preservation period (total micro-organism; calcium oxide 10% (w/w), Example 18): 9 week
- total microbial count after treatment (total micro-organism; calcium oxide 10% (w/w), spent brewer's grains, initial count 3,300,000): zero
- preservation effect period (total micro-organism; calcium oxide levels of 2.0% and 2.5% (w/w), Example 14): 10 days
- microbial counts (total micro-organism; calcium oxide powder 5% and 10% (w/w), end of the 9 week period): <10 to 20 cfu/gram
- preservation time with total microbial counts <10 cfu/g (total micro-organism; [3]): ≧9 weeks
- preservation time with total microbial counts <100 cfu/g (total micro-organism; [3]): ≧9 weeks
- preservation time with total microbial counts <1000 cfu/g (total micro-organism; [3]): ≧9 weeks
- preservation time with total microbial counts <10 cfu/g (total micro-organism; dose 10% w/w, distiller's grains not de-watered, Examples 16-18): ≧9 weeks
- Total plate count (total micro-organism; wet distiller's grains, 0.5% CaO (w/w), day 1): 1.01E+06 cfu/gram
- Total plate count (total micro-organism; wet distiller's grains, 0.5% CaO (w/w), day 2): 680000 cfu/gram
- Total plate count (total micro-organism; wet distiller's grains, 0.5% CaO (w/w), day 3): 35000 cfu/gram
- Total plate count (total micro-organism; wet distiller's grains, 0.5% CaO (w/w), day 6): 5.60E+07 cfu/gram
- Total plate count (total micro-organism; wet distiller's grains, 0.5% CaO (w/w), day 8): 3.30E+06 cfu/gram
- Total plate count (total micro-organism; wet distiller's grains, 1.0% CaO (w/w), day 1): 3.50E+06 cfu/gram
- Total plate count (total micro-organism; wet distiller's grains, 1.0% CaO (w/w), day 2): 3600 cfu/gram
- Total plate count (total micro-organism; wet distiller's grains, 1.0% CaO (w/w), day 3): 720 cfu/gram
- Total plate count (total micro-organism; wet distiller's grains, 1.0% CaO (w/w), day 6): 120 cfu/gram
- Total plate count (total micro-organism; wet distiller's grains, 1.0% CaO (w/w), day 8): 320 cfu/gram
- Total plate count (total micro-organism; wet distiller's grains, 1.0% CaO (w/w), day 10): 4.70E+07 cfu/gram
- Total plate count (total micro-organism; wet distiller's grains, 1.5% CaO (w/w), day 1): 26200 cfu/gram
- Total plate count (total micro-organism; wet distiller's grains, 1.5% CaO (w/w), day 2): 110 cfu/gram
- Total plate count (total micro-organism; wet distiller's grains, 1.5% CaO (w/w), day 3): 40 cfu/gram
- Total plate count (total micro-organism; wet distiller's grains, 1.5% CaO (w/w), day 6): 90 cfu/gram
- Total plate count (total micro-organism; wet distiller's grains, 1.5% CaO (w/w), day 8): 730 cfu/gram
- Total plate count (total micro-organism; wet distiller's grains, 1.5% CaO (w/w), day 10): 70 cfu/gram
- Total plate count (total micro-organism; wet distiller's grains, 2.0% CaO (w/w), day 1): 1090 cfu/gram
- Total plate count (total micro-organism; wet distiller's grains, 2.0% CaO (w/w), day 2): 130 cfu/gram
- Total plate count (total micro-organism; wet distiller's grains, 2.0% CaO (w/w), day 3): 130 cfu/gram
- Total plate count (total micro-organism; wet distiller's grains, 2.0% CaO (w/w), day 6): 340 cfu/gram
- Total plate count (total micro-organism; wet distiller's grains, 2.0% CaO (w/w), day 8): 180 cfu/gram
- Total plate count (total micro-organism; wet distiller's grains, 2.0% CaO (w/w), day 10): 60 cfu/gram
- Total plate count (total micro-organism; wet distiller's grains, 2.5% CaO (w/w), day 1): 5300 cfu/gram
- Total plate count (total micro-organism; wet distiller's grains, 2.5% CaO (w/w), day 2): 60 cfu/gram
- Total plate count (total micro-organism; wet distiller's grains, 2.5% CaO (w/w), day 3): 240 cfu/gram
- Total plate count (total micro-organism; wet distiller's grains, 2.5% CaO (w/w), day 6): 90 cfu/gram
- Total plate count (total micro-organism; wet distiller's grains, 2.5% CaO (w/w), day 7): 10 cfu/gram
- Total plate count (total micro-organism; wet distiller's grains, 2.5% CaO (w/w), day 8): 150 cfu/gram
- Total plate count (total micro-organism; wet distiller's grains, 2.5% CaO (w/w), day 10): 50 cfu/gram
- Total plate count (total micro-organism; wet distiller's grains, 2.5% CaO (w/w), day 14): 74,000 cfu/gram
- Total plate count (total micro-organism; wet distiller's grains, 2.5% CaO (w/w), day 21): 1,010,000 cfu/gram
- Total plate count (total micro-organism; wet distiller's grains, 2.5% CaO (w/w), day 56): 6,800,000 cfu/gram
- Total plate count (total micro-organism; wet distiller's grains, 5.0% CaO (w/w), day 7): 660 cfu/gram
- Total plate count (total micro-organism; wet distiller's grains, 5.0% CaO (w/w), day 14): 82,000 cfu/gram
- Total plate count (total micro-organism; wet distiller's grains, 5.0% CaO (w/w), day 21): 180 cfu/gram
- Total plate count (total micro-organism; wet distiller's grains, 5.0% CaO (w/w), day 42): 20 cfu/gram
- Total plate count (total micro-organism; wet distiller's grains, 5.0% CaO (w/w), day 49): 50 cfu/gram
- Total plate count (total micro-organism; wet distiller's grains, 5.0% CaO (w/w), day 56): 3,400 cfu/gram
- Total plate count (total micro-organism; wet distiller's grains, 10.0% CaO (w/w), day 7): 740 cfu/gram
- Total plate count (total micro-organism; wet distiller's grains, 10.0% CaO (w/w), day 14): 150 cfu/gram
- Total plate count (total micro-organism; wet distiller's grains, 10.0% CaO (w/w), day 21): 100 cfu/gram
- Total plate count (total micro-organism; wet distiller's grains, 10.0% CaO (w/w), day 42): 130 cfu/gram
- Total plate count (total micro-organism; wet distiller's grains, 10.0% CaO (w/w), day 49): 80 cfu/gram
- Total plate count (total micro-organism; wet distiller's grains, 10.0% CaO (w/w), day 56): 460 cfu/gram
- pH ([1]; 0.5% CaO (w/w), day 1): 7.97
- pH ([1]; 0.5% CaO (w/w), day 2): 8.06
- pH ([1]; 0.5% CaO (w/w), day 3): 7.63
- pH ([1]; 0.5% CaO (w/w), day 6): 7.38
- pH ([1]; 0.5% CaO (w/w), day 8): 7.80
- pH ([1]; 1.0% CaO (w/w), day 1): 8.86
- pH ([1]; 1.0% CaO (w/w), day 2): 8.82
- pH ([1]; 1.0% CaO (w/w), day 3): 9.19
- pH ([1]; 1.0% CaO (w/w), day 6): 9.21
- pH ([1]; 1.0% CaO (w/w), day 8): 7.89
- pH ([1]; 1.0% CaO (w/w), day 10): 8.27
- pH ([1]; 1.5% CaO (w/w), day 1): 9.10
- pH ([1]; 1.5% CaO (w/w), day 2): 9.15
- pH ([1]; 1.5% CaO (w/w), day 3): 9.95
- pH ([1]; 1.5% CaO (w/w), day 6): 9.84
- pH ([1]; 1.5% CaO (w/w), day 8): 9.10
- pH ([1]; 1.5% CaO (w/w), day 10): 10.84
- pH ([1]; 2.0% CaO (w/w), day 1): 10.68
- pH ([1]; 2.0% CaO (w/w), day 2): 10.10
- pH ([1]; 2.0% CaO (w/w), day 3): 9.48
- pH ([1]; 2.0% CaO (w/w), day 6): 11.22
- pH ([1]; 2.0% CaO (w/w), day 8): 9.76
- pH ([1]; 2.0% CaO (w/w), day 10): 9.97
- pH ([1]; 2.5% CaO (w/w), day 1): 11.48
- pH ([1]; 2.5% CaO (w/w), day 2): 11.08
- pH ([1]; 2.5% CaO (w/w), day 3): 11.41
- pH ([1]; 2.5% CaO (w/w), day 6): 11.55
- pH ([1]; 2.5% CaO (w/w), day 8): 10.29
- pH ([1]; 2.5% CaO (w/w), day 10): 8.87
- pH ([1]; 5% CaO (w/w) powder, week 1): 11.36
- pH ([1]; 5% CaO (w/w) powder, week 2): 11.00
- pH ([1]; 5% CaO (w/w) powder, week 3): 12.20
- pH ([1]; 5% CaO (w/w) powder, week 4): 11.61
- pH ([1]; 5% CaO (w/w) powder, week 5): 11.34
- pH of treated wet distiller's grains [1, 2]: below 8
